Patent publication US20250276955A1, “CORONAVIRUS MAIN PROTEASE INHIBITORS AND METHODS USING SAME” (Baylor College of Medicine, priority 2021, published 2025)
Values after ≈ are worked out from the molar mass of the structure shown. Like-named read-outs stand apart in the source and are kept apart here.

Key:
SARS-COV-2 M^pro-His6 = SARS-COV-2 M^pro-His6 (Severe acute respiratory syndrome coronavirus 2, UniProt P0DTD1); experiment: biochemical; type: biochemical
[1] = target: SARS-COV-2 M^pro (authentic N- and C-termini) (Severe acute respiratory syndrome coronavirus 2, UniProt P0DTD1); experiment: biochemical; type: biochemical; conditions: for M^pro Ki: 25 nM enzyme, 15 μM fluorescent peptide, Morrison equation, Inactive = less than 50% inhibition at 25 μM compound; for Ki,app: Table 5
Human Cathepsin B = target: T1, Human Cathepsin B (Homo sapiens, UniProt P07858); experiment: Cathepsin B assay; type: biochemical
T1 construct: purchased BPS Bioscience 79590
Method: A kit from BPS Bioscience (#79590) was used with adjustments to the manufacturer's protocol as follows: The activated enzyme was diluted 250-fold just before use, and the reaction was run at RT in black 96 half-area plates in a total reaction volume of 50 uL containing 0.01% Tween-20. Instead of measuring endpoints at 60 min the increase in fluorescence (Ex 360 nm, Em 460 nm) per second (RFU/s) was obtained from linear progress curves over 10 min. Fractional activities were calculated from reactions with no inhibitors. E-64 was used as a positive control.

[2] = Apparent solubility in PBS buffer; conditions: for solubility: PBS buffer with 2% DMSO, aqueous buffer, kinetic from dmso stock
[3] = tested on: SARS-COV-2 (USA_WA1/2020 isolate) in VERO E6 cells; experiment: Real-Time Cell Analysis (RTCA) assay of SARS-COV-2 replication; type: cell-based; conditions: VERO E6 cells, 75 h
[4] = Metabolic stability in mouse liver microsomes; type: in vitro ADME; conditions: 0.5 mg protein/mL, 2.0 μM compound, 1.0 mM NADPH
Method: (§1) The samples were collected at specific time-points 0, 30, and 60 min in duplicate. The reactions were terminated by adding an equivalent volume of ice-cold methanol and vortexed. […] Three μL of the supernatant was analyzed by UHPLC-Q Exactive Orbitrap MS (Thermo Fisher Scientific, USA) equipped with 50 mm×4.6 mm column (XDB C-18, Agilent Technologies, USA). The column temperature was maintained at 40° C. The flow rate was at 0.3 mL/min with a 30% mobile phase (acetonitrile containing 0.1% formic acid). Q Exactive MS was operated in positive mode with electrospray ionization. Ultra-pure nitrogen was applied as the sheath (45 arbitrary unit), auxiliary (10 arbitrary unit), sweep (1.0 arbitrary unit) and the collision gas. […] MS data were acquired from 80 to 1,200 Da in profile mode.

[5] = Metabolic stability in human liver microsomes; type: in vitro ADME; conditions: 0.5 mg protein/mL, 2.0 μM compound, 1.0 mM NADPH
Method: as §1

[6] = target: SARS-CoV-2 main protease (M^pro) (Severe acute respiratory syndrome coronavirus 2, UniProt P0DTD1); experiment: Protein thermal shift stability assay (SYPRO Orange); type: binding; conditions: 50 μM compound; […]; 50 µM
human thrombin = target: T2, human thrombin (Homo sapiens, UniProt P00734); experiment: Thrombin fluorescence assay; type: biochemical; conditions: fluorescence assay
T2 construct: purchased Sigma-Aldrich MAK243

HOVPro-Gii.4 = experiment: Thermal shift, HOVPro-Gii.4; type: binding; conditions: 50 µM
HOVPro-Gi.1 = target: T3, HOVPro-Gi.1 (Norovirus, UniProt Q83883); experiment: Thermal shift, HOVPro-Gi.1; type: binding; conditions: 50 µM
T3 construct: HOVPro-Gi.1
T3 sequence (Q83883 1101-1281): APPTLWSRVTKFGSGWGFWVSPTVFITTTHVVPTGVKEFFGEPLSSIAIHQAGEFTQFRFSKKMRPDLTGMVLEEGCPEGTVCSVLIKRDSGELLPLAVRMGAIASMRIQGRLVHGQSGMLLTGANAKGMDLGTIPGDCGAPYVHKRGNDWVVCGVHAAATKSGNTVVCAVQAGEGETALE

[7] = Table 3, column a (footnote not given)
[8] = Table 3, column b (footnote not given)
[9] = 25 nM enzyme, 15 μM fluorescent peptide, Morrison equation, Inactive = less than 50% inhibition at 25 μM compound
[10] = Table 3, column b (footnote not given), read-out: Kiapp (nM)^b
[11] = Ki, app towards SARS-CoV-2 M^pro, athentic termini, authentic termini
[12] = Kiapp (nM)^b, Table 3, column b (footnote not given)
[13] = Table 3, column a (footnote not given), read-out: Kiapp (nM)^a

CNC(=O)[C@H]1C[C@H](n2c(-c3cncc4ccccc34)nc3cccc(C(=O)NC(C)C)c32)C1 [CDD-1842]
Kiapp (nM)^a (SARS-COV-2 M^pro-His6): Inactive | Kiapp (nM)^b [1]: Inactive

CCC[C@H](NC(=O)c1cccc2nc(-c3cncc4ccccc34)n(C(C)C)c12)c1ccc(C(F)(F)F)cc1 [CDD-1804]
Kiapp (nM)^a (SARS-COV-2 M^pro-His6; [7]): Inactive | Kiapp (nM)^b [1, 8]: Inactive

COc1cc(-c2cccc3[nH]ncc23)cc(C(C)=O)c1OCC(=O)N(C)C [CDD-1883]
M^pro-His Ki (SARS-COV-2 M^pro-His6; [9]): Inactive | M^pro Ki [1]: Inactive

CCC[C@H](NC(=O)c1cccc2nc(-c3cncc4ccccc34)n(CCCC(=O)NC)c12)c1ccc(C)cc1 [CDD-1934]
Ki [1, 10]: 27.4 ± 2.4 nM

CCC[C@H](NC(=O)c1cccc2nc(-c3cncc4ccccc34)n(C3CCC3)c12)c1ccc(C(F)(F)F)cc1 [CDD-1806]
Human Cathepsin B, Fractional Remaining Activity (Human Cathepsin B): 0.94 | solubility [2]: 0.1 µM (≈ 0.0543 µg/mL) | Ki (SARS-COV-2 M^pro-His6): 165 ± 12.9 nM | Ki [1, 11]: 137 nM | Ki [1, 12]: 137 ± 11.6 nM

CNC(=O)CCCn1c(-c2cnccc2C)nc2cccc(C(=O)N[C@@H](C)c3ccc4ccccc4c3)c21 [CDD-1924]
Ki [1, 10]: 426 ± 46.4 nM

COc1cc(-c2cccc3[nH]ncc23)cc(CO)c1OCC(=O)N(C)C [CDD-1776]
M^pro-His Ki (SARS-COV-2 M^pro-His6; [9]): Inactive | M^pro inhibition (in words) [1]: completely abolished the activity | M^pro Ki [1]: Inactive | Ki,app [1]: Inactive

CCOC(=O)/C=C/c1cc(-c2cccc3[nH]ncc23)cc(OC)c1OCC(=O)N(C)C [CDD-1971]
M^pro-His Ki (SARS-COV-2 M^pro-His6; [9]): Inactive | M^pro Ki [1]: Inactive

CCC[C@H](NC(=O)c1cccc2nc(-c3cncc4ccccc34)n(CCCC(=O)NC)c12)c1ccc(C(F)(F)F)cc1 [CDD-1830]
Ki (SARS-COV-2 M^pro-His6; [13]): 5.6 ± 0.5 nM | Ki [1, 10]: 6.5 ± 1 nM

COc1cc(-c2cccc3[nH]ncc23)cc(C(=O)CO)c1OCC(=O)N(C)C [CDD-1886]
Ki (SARS-COV-2 M^pro-His6; 25 nM enzyme, 15 μM fluorescent peptide, Morrison equation, Inactive = less than 50% inhibition at 25 μM compound, read-out: M^pro-His Ki): 15700 ± 1200 nM | decrease of M^pro inhibition relative to CDD-1713 [1]: greater than 100 fold | Ki ([1]; read-out: M^pro Ki): 21200 ± 1500 nM

CCC[C@H](NC(=O)c1cccc2nc(-c3cncc4ccccc34)n([C@H]3C[C@H](C(=O)NC)C3)c12)c1ccccc1 [CDD-1843]
Kiapp (nM)^a (SARS-COV-2 M^pro-His6; [7]): Inactive | Kiapp (nM)^b [1, 8]: Inactive

COc1cc(-c2cccc3[nH]ncc23)ccc1OCC(=O)N(C)C [CDD-1793, 2-(4-(1H-indazol-4-yl)-2-methoxyphenoxy)-N,N-dimethylacetamide]
M^pro-His Ki (SARS-COV-2 M^pro-His6; [9]): Inactive | M^pro inhibition (in words) [1]: completely abolished the activity | M^pro Ki [1]: Inactive | Ki,app [1]: Inactive

CNC(=O)CCCn1c(-c2ccc3cnccc3c2)nc2cccc(C(=O)N[C@@H](C)c3ccc4ccccc4c3)c21 [CDD-1884]
Kiapp (nM)^a (SARS-COV-2 M^pro-His6; [7]): Inactive | Kiapp (nM)^b [1, 8]: Inactive

CNC(=O)CCCn1c(-c2cncc3ccccc23)nc2cccc(C(=O)NCc3ccc4ccccc4c3)c21 [CDD-1925]
Ki (SARS-COV-2 M^pro-His6; [13]): 51.3 ± 7.5 nM | Ki [1, 10]: 42.5 nM

CNC(=O)[C@H]1C[C@H](n2c(-c3cncc4ccccc34)nc3cccc(C(=O)NC(C)c4ccc(C(F)(F)F)cc4)c32)C1 (some centres unmarked) [CDD-1829]
Ki (SARS-COV-2 M^pro-His6; [13]): 45.7 ± 3.7 nM | Ki [1, 10]: 47.9 ± 4.7 nM

CN(C)C(=O)COc1ccc(-c2cccc3[nH]ncc23)cc1C#N [CDD-2038]
M^pro-His Ki (SARS-COV-2 M^pro-His6; [9]): Inactive | M^pro Ki [1]: Inactive

COc1cc(-c2cccc3c2cnn3C)cc(C=O)c1OCC(=O)N(C)C [CDD-1847, 2-(2-formyl-6-methoxy-4-(1-methyl-1H-indazol-4-yl)phenoxy)-N,N-dimethylacetamide]
M^pro-His Ki (SARS-COV-2 M^pro-His6; [9]): Inactive | prevention of SARS-COV-2 induced cell death (in words) [3]: unable to prevent cell death | M^pro inhibition (in words) [1]: completely lost activity | M^pro Ki [1]: Inactive

CCC[C@H](NC(=O)c1cccc2nc(-c3cncc4ccccc34)n([C@H]3C[C@H](C(=O)NC)C3)c12)c1cccc(C(F)(F)F)c1 [CDD-1795]
Human Cathepsin B, Fractional Remaining Activity (Human Cathepsin B): 1.07 | solubility [2]: 50.4 µM (≈ 30.2 µg/mL) | Ki (SARS-COV-2 M^pro-His6; [13]): 29.4 ± 4.3 nM | Ki [1, 11]: 35.2 nM | Ki [1, 12]: 35.2 ± 4.9 nM

CNC(=O)CCCn1c(-c2ccc(N)nc2)nc2cccc(C(=O)N[C@@H](C)c3ccc4ccccc4c3)c21 [CDD-1926]
Kiapp (nM)^a (SARS-COV-2 M^pro-His6; [7]): Inactive | Kiapp (nM)^b [1, 8]: Inactive

O=C1CCOc2ccc(-c3cccc4[nH]ncc34)cc21 [CDD-2037]
M^pro-His Ki (SARS-COV-2 M^pro-His6; [9]): Inactive | M^pro Ki [1]: Inactive

CNC(=O)CCCn1c(-c2ccc3cccnc3n2)nc2cccc(C(=O)N[C@@H](C)c3ccc4ccccc4c3)c21 [CDD-1905]
Kiapp (nM)^a (SARS-COV-2 M^pro-His6; [7]): Inactive | Kiapp (nM)^b [1, 8]: Inactive

CNC(=O)CCCn1c(-c2ccnc3ccccc23)nc2cccc(C(=O)N[C@@H](C)c3ccc4ccccc4c3)c21 [CDD-1906]
Kiapp (nM)^a (SARS-COV-2 M^pro-His6; [7]): Inactive | Kiapp (nM)^b [1, 8]: Inactive

CCC[C@H](NC(=O)c1cccc2nc(-c3cncc4ccccc34)n([C@H]3CC[C@H](C(=O)NC)C3)c12)c1ccc(C(F)(F)F)cc1 [CDD-1790]
solubility [2]: 52.1 µM (≈ 32 µg/mL) | Ki (SARS-COV-2 M^pro-His6; [13]): 621 ± 46 nM | Ki [1, 11]: 663 nM | Ki [1, 10]: 663 ± 66 nM

Cc1nnc2n1-c1ccc(Cl)cc1C(c1ccccc1)=NC2 [Alprazolam, reference compound]
MLM t1/2 (half-life) [4]: 296 | HLM t1/2 (half-life) [5]: 832

CCC[C@H](NC(=O)c1cccc2nc(-c3cncc4ccccc34)n(C3CCNCC3)c12)c1ccc(C(F)(F)F)cc1 [CDD-1818]
Ki (SARS-COV-2 M^pro-His6; [13]): 1470 ± 152 nM | Ki [1, 10]: 1710 ± 128 nM

CNC(=O)[C@H]1C[C@H](n2c(-c3cncc4ccccc34)nc3cccc(C(=O)N[C@@H](C)c4ccccc4)c32)C1 [CDD-1841]
Ki (SARS-COV-2 M^pro-His6; [13]): 571 ± 72.7 nM | Ki [1, 10]: 565 ± 55.3 nM

CCCC(NC(=O)c1cccc2nc(-c3cncc4ccccc34)n([C@H]3C[C@H](C(=O)NC)C3)c12)c1ccc(C(F)(F)F)cc1 (some centres unmarked) [CDD-1732]
ΔTm of Mpro at 50 μM compound conc. [6]: 0.61 °C | Measured apparent solubility in PBS buffer (2% DMSO) ([2]; PBS buffer, 2% DMSO): 26.9 µM | Thrombin inhibition (human thrombin): None | ΔTm of HOVPro-Gii.4 at 50 μM compound conc. (HOVPro-Gii.4): −1.24 °C | ΔTm of HOVPro-Gi.1 at 50 μM compound conc. (HOVPro-Gi.1): −0.82 °C

C[C@H](NC(=O)c1cccc2nc(-c3cncc4ccccc34)n(CCCC(=O)O)c12)c1ccc2ccccc2c1 [CDD-1972]
Ki [1, 10]: 87.9 ± 8.4 nM

CCC[C@H](NC(=O)c1cccc2nc(-c3cccnc3)n([C@H]3C[C@H](C(=O)NC)C3)c12)c1ccc(C(F)(F)F)cc1 [CDD-1831]
Kiapp (nM)^a (SARS-COV-2 M^pro-His6): Inactive | Kiapp (nM)^b [1]: Inactive

COC(=O)c1cc(-c2cccc3[nH]ncc23)cc(OC)c1OCC(=O)N(C)C [CDD-1982]
M^pro-His Ki (SARS-COV-2 M^pro-His6; [9]): Inactive | M^pro Ki [1]: Inactive

CNC(=O)CCCn1c(-c2cccc3ccccc23)nc2cccc(C(=O)N[C@@H](C)c3ccc4ccccc4c3)c21 [CDD-1885]
Kiapp (nM)^a (SARS-COV-2 M^pro-His6; [7]): Inactive | Kiapp (nM)^b [1, 8]: Inactive
